{"source": "patent US5036008A", "about": "“Antitumor antibiotic BU-3285T” (Bristol-Myers Company, priority 1990, dated 1991)", "key": {"[1]": {"system": "Moser (human colorectal carcinoma) cells", "assay": "In vitro cytotoxicity (Table 6)", "protocol": "(§1) BU-3285T was tested for in vitro cytotoxicity against several murine and human tumor cell lines and for in vivo antitumor activity in mice. Mitomycin C was used as a reference compound in both in vitro and in vivo experiments. B16-F10 (murine melanoma) and Moser (human colorectal carcinoma) cells were grown to the logarithmic phase in an enriched Eagle minimum essential medium supplemented with fetal calf serum (FCS, 10%) and kanamycin (60 μg/ml); HCT-116 (human colon carcinoma) cells were in McCoy's 5A medium supplemented with FCS (10%), penicillin (100 U/ml) and streptomycin (100 μg/ml); and P388 (murine lymphocytic leukemia) cells and its vincristine-resistant subline (P388/VCR) were in RPMI 1640 medium supplemented with FCS (10%), penicillin (100 U/ml) and streptomycin (100 μg/ml).\n(§2) B16-F10, Moser, HCT-116 and P388 cells were harvested and implanted into wells of a 96-well (for B16-F10, Moser and HCT-116 cells) or a 24-well (for P388 cells) tissue culture plate with test materials at the inoculum sizes of 3×10^4, 6 ×10^4, 6×10^4 and 2×10^4 cells/ml, respectively. They were incubated at 37° C. in a humidified atmosphere of 5% CO2 and 95% air for 72 hrs. […] For P388 cells, the number of viable cells was determined by a Coulter counter."}, "[2]": {"system": "P388/VCR (vincristine-resistant subline of P388) cells", "assay": "In vitro cytotoxicity (Table 6)", "protocol": "as §1, §2"}, "[3]": {"system": "RNA biosynthesis in L1210 leukemia cells", "assay": "Inhibition of macromolecule biosynthesis, RNA (Table 7)", "assay_type": "cell-based, murine", "settings": "Mus musculus, labelled precursor, 15 min + 60 min, 37° C., read-out: IC50, RNA synthesis", "protocol": "Inhibitory effects of BU-3285T on macromolecule biosynthesis (DNA, RNA and protein) were determined in cultured L1210 murine leukemia cells. The cells (5×10^5 cells/ml) were incubated with the compound at 37° C. for 15 minutes and then further incubated for 60 minutes after the addition of labelled precursor, ^3 H-thymidine, ^14 C-uridine or ^3 H-leucine into the cultured mixture. After washing with chilled 5% trichloroacetic acid solution, the radioactivity incorporated into the acid-insoluble fraction of the cells was determined by a liquid scintillation counter."}, "[4]": {"system": "HCT-116 (human colon carcinoma) cells", "assay": "In vitro cytotoxicity (Table 14)", "assay_type": "cell-based", "settings": "HCT-116, 72 h", "description": "B16-F10 (murine melanoma), HCT-116 (human colon carcinoma), A549 (human lung carcinoma) and A549/VP29 (an etoposide-resistant subline of A549) were grown in Eagle's MEM (Nissui) supplemented with FCS (fetal calf serum, 10%) and non-essential amino acids (B16-F10), or in McCoy's 5A medium (Gibco) with FCS (10%), essential and non-essential amino acids, vitamins and antibiotics (HCT-116 and both of A549) at 37° C. under a humidified atmosphere in a 5% CO2 incubator. Exponentially growing B16-F10, HCT-116 and A549 cells were harvested, counted and suspended in the culture medium at 1.5×10^4, 3×10^4 and 3×10^4 cells/ml, respectively. After planting 180 μl of cell suspension into wells of a 96-well microtiter plate on day 0, the test materials (20 μl) were added on day 1 and the plates were incubated for 72 hours. The cytotoxic activity was colorimetrically determined at 540 nm after staining viable cells with neutral red solution."}, "[5]": {"assay": "Solubility", "assay_type": "physicochemical"}, "[6]": {"system": "A549/VP29 (etoposide-resistant subline of A549) cells", "assay": "In vitro cytotoxicity (Table 14)", "settings": "A549/VP29, 72 hours, neutral red", "description": "(§3) After planting 180 μl of cell suspension into wells of a 96-well microtiter plate on day 0, the test materials (20 μl) were added on day 1 and the plates were incubated for 72 hours. The cytotoxic activity was colorimetrically determined at 540 nm after staining viable cells with neutral red solution."}, "[7]": {"system": "A. fumigatus IAM2034", "assay": "microbe, parasite or virus in culture", "settings": "Aspergillus fumigatus, IAM2034, 40 h, pH 7", "description": "(§4) In vitro antifungal activity was determined against various fungi by the serial agar dilution method. Sabouraud dextrose agar (pH 7.0) was used for the experiment. The inoculum size was adjusted to 10^6 CFU/ml. After incubation at 28° C. for 40 hours, the minimum inhibitory concentration (MIC) was examined."}, "[8]": {"system": "murine and human tumor cell lines", "assay": "In vitro cytotoxicity, overall statement", "description": "as §3"}, "[9]": {"system": "fungi", "assay": "In vitro antifungal activity, overall statement", "settings": "various fungi", "description": "as §4"}, "[10]": {"system": "Candida albicans IAM4888", "assay": "In vitro antifungal activity, serial agar dilution", "settings": "IAM4888, 40 h, pH 7", "description": "as §4"}, "[11]": {"system": "C. neoformans IAM4514", "assay": "In vitro antifungal activity, serial agar dilution", "settings": "Cryptococcus neoformans, IAM4514, 40 h, pH 7", "description": "as §4"}, "[12]": {"system": "Trichophyton mentagrophytes D155", "assay": "In vitro antifungal activity, serial agar dilution", "settings": "D155, 40 h, pH 7", "description": "as §4"}, "[13]": {"system": "Blastomyces dermatidis D40", "assay": "In vitro antifungal activity, serial agar dilution", "settings": "D40, 40 h, pH 7", "description": "as §4"}, "[14]": {"system": "Petriellidium boydii IF08078", "assay": "In vitro antifungal activity, serial agar dilution", "settings": "Scedosporium boydii, IF08078, 40 h, pH 7", "description": "as §4"}, "[15]": {"system": "Mucor spinosus IF05317", "assay": "In vitro antifungal activity, serial agar dilution", "settings": "IF05317, 40 h, pH 7", "description": "as §4"}, "[16]": {"system": "B16 melanoma", "assay": "In vivo antitumor activity against B16 melanoma (Table 10)", "description": "Female CDF1 mice were intraperitoneally inoculated with 0.4 ml of diluted ascitic fluid containing 10^6 lymphocytic leukemia P388 cells or 10^5 lymphoid leukemia L1210 cells and male BDF1 mice were intraperitoneally inoculated with 0.5 ml of 10% melanotic melanoma B16 brei."}}, "note": "Entries after “also recorded” stand apart in the source; their conditions may differ.", "data": [{"smiles": "CCCCC/C=C/C=C\\C=C/C(O)C(C)C(C/C=C/C1OC(=O)C=CC1O)OS(=O)(=O)O", "note": "(stereo not shown) [BU-3285T]", "values": [{"measurement": "IC50", "setting": "[1]; Homo sapiens, 72 h", "value": 0.85, "unit": "µg/mL"}, {"measurement": "cytotoxic activity, comparison among cell lines", "setting": "[1]; among B16-F10, HCT-116 and Moser", "value": "most potent cytotoxic activity against Moser cells"}, {"measurement": "IC50", "setting": "[2]; Mus musculus, P388/VCR, 72 h", "value": 4.4, "unit": "µg/mL"}, {"measurement": "cytotoxicity against P388/VCR compared with parent cells", "setting": "[2]; vs P388 parent", "value": "almost the same cytotoxicity"}, {"measurement": "IC50", "setting": "[3]", "value": 14.4, "unit": "µg/mL"}, {"measurement": "IC50", "setting": "[4]", "value": 1.9, "unit": "µg/mL"}, {"measurement": "solubility in acetone", "setting": "[5]; acetone", "value": "slightly soluble"}, {"measurement": "solubility in chloroform", "setting": "[5]; chloroform", "value": "insoluble"}, {"measurement": "solubility in dimethyl sulfoxide", "setting": "[5]; dimethyl sulfoxide", "value": "soluble"}, {"measurement": "solubility in ethanol", "setting": "[5]; ethanol", "value": "soluble"}, {"measurement": "solubility in ethyl acetate", "setting": "[5]; ethyl acetate", "value": "slightly soluble"}, {"measurement": "solubility in methanol", "setting": "[5]; methanol", "value": "soluble"}, {"measurement": "solubility in n-hexane", "setting": "[5]; n-hexane", "value": "insoluble"}, {"measurement": "solubility in water", "setting": "[5]; water", "value": "soluble"}, {"measurement": "IC50", "setting": "[6]", "value": 17, "unit": "µg/mL"}, {"measurement": "MIC", "setting": "[7]", "value": "> 100", "unit": "µg/mL"}, {"measurement": "cytotoxicity in vitro", "setting": "[8]; murine and human tumor cell lines", "value": "exhibits in vitro antifungal activity and cytotoxicity; also recorded: quite active"}, {"measurement": "IC50 values against the murine and human tumor cell lines (range)", "setting": "[8]; range over cell lines of Table 14", "value": "1.9 to 38", "unit": "µg/mL"}, {"measurement": "antifungal activity in vitro", "setting": "[9]", "value": "exhibits in vitro antifungal activity"}, {"measurement": "antifungal activity in vitro", "setting": "[9]; listed as BU-3285 T", "value": "relatively good and broad antifungal profile"}, {"measurement": "MIC", "setting": "[10]", "value": 25, "unit": "µg/mL"}, {"measurement": "MIC", "setting": "[11]", "value": 1.6, "unit": "µg/mL"}, {"measurement": "MIC", "setting": "[12]", "value": 25, "unit": "µg/mL"}, {"measurement": "MIC", "setting": "[13]", "value": 12.5, "unit": "µg/mL"}, {"measurement": "MIC", "setting": "[14]", "value": 0.8, "unit": "µg/mL"}, {"measurement": "MIC", "setting": "[15]", "value": 25, "unit": "µg/mL"}, {"measurement": "activity compared with mitomycin C", "setting": "[16]; B16, in terms of minimum effective dose", "value": "somewhat weaker"}, {"measurement": "in vivo antitumor activity", "setting": "[16]; B16 melanoma in mice", "value": "potent in vivo inhibitory activity; also recorded: good antitumor activity"}]}]}
